Laboratory results taken from PMC11212140, “Molecular Bidents with Two Electrophilic Warheads as a New Pharmacological Modality” (ACS Central Science, 2024).

Columns and labels:
Assay in all cases: KiNativ profiling in H3255 cells
Assay type in all cases: cell-based, human
AMPKa1, AMPKa2 = conditions: 2.5 µM
Description: (§1) treatment. Cell viability was determined by using CellTiter-Glo (Promega #G7571) according to the manufacturer’s instructions, measuring luminescence using an Envision plate-reader (PerkinElmer Inc.). Dose-response curves were generated using non-linear regression curve fit in GraphPad Prism 9.2.0(GraphPad Software).
(§2) Cellular target engagement assays
(§3) After 6 hours treatment, cells were pelleted, washed with PBS once and lysed with IP lysis buffer (25mMTris-HCl pH 7.4, 150mM NaCl, 1 mM EDTA, 1% NP-40 and 5% glycerol) (Thermo Fisher Scientific, Cat#87788) containing protease/phosphatase inhibitor cocktail (Roche). The protein concentrations were measured by BCA analysis (Pierce). Cell lysates were incubated with 1 μM of biotin conjugated probe (bio-Osimertinib or bio-ZNL-0013) at 4 ℃ overnight, and incubated for 3 more hours at room temperature. Lysates with probe were then incubated with streptavidin beads (Thermo Fisher, #20349) for 2 hours at 4 ℃. The protein-probe complexes on the beads were then subjected to immunoblotting.
(§4) H3255 cells were plated with 6.5x10^6 per condition in fresh media in 15 cm plates and treated the 80% confluency for 2 hours with DMSO or 2.5 μM of ZNL-0056. To harvest cells, plates were washed 3 times with cold PBS, then collected by scraping into 4 mL of cold PBS containing protease and phosphatase inhibitors. Cells were pelleted by centrifugation at 1350 g at 4 ℃ for 5 minutes and immediately frozen in liquid nitrogen. The frozen samples were sent to ActivX Biosciences (La Jolla, CA) for the remainder of the KiNativ profiling experiment4.
(§5) Protein expression and purification
(§6) Human EGFR kinase domain (residues 696-1022) with T790M and V948R mutations was cloned with an N-terminal, protease cleavable His -GST tag. Recombinant protein was expressed in SF9 insect cells using baculovirus generated from the pFastBac system (Thermo Fisher) .
(§7) Briefly, cells at a density of ~2x10^6 cells/mL were infected with 1% (v/v) virus stock and grown for ~72 hours before harvesting and freezing the cell pellet . Infected cells were lysed in buffer A (50 mM Tris pH 8.0, 500 mM NaCl, 5% glycerol, 0.5 mM Tris(2-carboxyethyl)phosphine [TCEP]), ultracentrifuged at >200,000 rcf for 1 h, and the supernatant flo wed through Ni-NTA resin by gravity. The resin was washed with buffer A supplemented with 40 mM imidazole by […]

AurA, AurB, AurC = conditions: 2.5 µM; ATP Loop; GKFGNVYLAR
Description: as §1, §2, §3, §4, §5, §6, §7

CCRK = system: T1, CCRK; conditions: 2.5 µM; Lys2; DLKPANLLISASGQLK
T1 construct: purchased ActivX Biosciences (KiNativ)
Description: as §1, §2, §3, §4, §5, §6, §7

CDK7 = system: T2, CDK7; conditions: 2.5 µM
T2 construct: purchased ActivX Biosciences (KiNativ)
Description: as §1, §2, §3, §4, §5, §6, §7

CHK2 = system: T3, CHK2; conditions: 2.5 µM
T3 construct: purchased ActivX Biosciences (KiNativ)
Description: as §1, §2, §3, §4, §5, §6, §7

CK1g3 = system: T4, CK1g3; conditions: 2.5 µM; Lys2; DVKPENFLIGRPGNK
T4 construct: purchased ActivX Biosciences (KiNativ)
Description: as §1, §2, §3, §4, §5, §6, §7

CaMKK2 = system: T5, CaMKK2; conditions: 2.5 µM
T5 construct: purchased ActivX Biosciences (KiNativ)
Description: as §1, §2, §3, §4, §5, §6, §7

EGFR, EGFR-L858R = system: T6, EGFR, EGFR-L858R; conditions: 2.5 µM
T6 construct: purchased ActivX Biosciences (KiNativ)
Description: as §1, §2, §3, §4, §5, §6, §7

EGFR-L858R = system: T7, EGFR-L858R; conditions: 2.5 µM; Activation Loop; AKLLGAEEK
T7 construct: purchased ActivX Biosciences (KiNativ)
Description: as §1, §2, §3, §4, §5, §6, §7

Erk5 = system: T8, Erk5; conditions: 2.5 µM; Lys2; DLKPSNLLVNENCELK
T8 construct: purchased ActivX Biosciences (KiNativ)
Description: as §1, §2, §3, §4, §5, §6, §7

GSK3A = system: T9, GSK3A; conditions: 2.5 µM; Lys2; DIKPQNLLVDPDTAVLK
T9 construct: purchased ActivX Biosciences (KiNativ)
Description: as §1, §2, §3, §4, §5, §6, §7

MAP3K4 = system: T10, MAP3K4; conditions: 2.5 µM
T10 construct: purchased ActivX Biosciences (KiNativ)
Description: as §1, §2, §3, §4, §5, §6, §7

MAP3K5 = system: T11, MAP3K5; conditions: 2.5 µM; Lys2; DIKGDNVLINTYSGVLK
T11 construct: purchased ActivX Biosciences (KiNativ)
Description: as §1, §2, §3, §4, §5, §6, §7

MAP3K6 = system: T12, MAP3K6; conditions: 2.5 µM; Lys2; DIKGDNVLINTFSGLLK
T12 construct: purchased ActivX Biosciences (KiNativ)
Description: as §1, §2, §3, §4, §5, §6, §7

MARK1, MARK2 = conditions: 2.5 µM; Lys1; EVAVKIIDK
Description: as §1, §2, §3, §4, §5, §6, §7

MLK1 = system: T13, MLK1; conditions: 2.5 µM; Lys2; DLKSSNILILQK
T13 construct: purchased ActivX Biosciences (KiNativ)
Description: as §1, §2, §3, §4, §5, §6, §7

MPSK1 = system: T14, MPSK1; conditions: 2.5 µM; Lys2; DLKPTNILLGDEGQPVLMDLGSMNQACIHVEGSR
T14 construct: purchased ActivX Biosciences (KiNativ)
Description: as §1, §2, §3, §4, §5, §6, §7

MRCKb = system: T15, MRCKb; conditions: 2.5 µM; Lys2; DIKPDNVLLDVNGHIR
T15 construct: purchased ActivX Biosciences (KiNativ)
Description: as §1, §2, §3, §4, §5, §6, §7

NEK2 = system: T16, NEK2; conditions: 2.5 µM; Lys2; DLKPANVFLDGK
T16 construct: purchased ActivX Biosciences (KiNativ)
Description: as §1, §2, §3, §4, §5, §6, §7

NuaK1 = system: T17, NuaK1; conditions: 2.5 µM; Lys1; VVAIKSIR
T17 construct: purchased ActivX Biosciences (KiNativ)
Description: as §1, §2, §3, §4, §5, §6, §7

PDK1 = system: T18, PDK1; conditions: 2.5 µM; Lys1; EYAIKILEK
T18 construct: purchased ActivX Biosciences (KiNativ)
Description: as §1, §2, §3, §4, §5, §6, §7

PIP4K2C = system: T19, PIP4K2C; conditions: 2.5 µM, ATP
T19 construct: purchased ActivX Biosciences (KiNativ)
Description: as §1, §2, §3, §4, §5, §6, §7

PKD3 = system: T20, PKD3; conditions: 2.5 µM
T20 construct: purchased ActivX Biosciences (KiNativ)
Description: as §1, §2, §3, §4, §5, §6, §7

PKN2 = system: T21, PKN2; conditions: 2.5 µM; Lys2; DLKLDNLLLDTEGFVK
T21 construct: purchased ActivX Biosciences (KiNativ)
Description: as §1, §2, §3, §4, §5, §6, §7

Compound	Inhibition (AMPKa1, AMPKa2; Lys1, VAVKILNR) [%]	Inhibition (AMPKa1, AMPKa2; Lys2, DLKPENVLLDAHMNAK) [%]	Inhibition (AurA, AurB, AurC) [%]	Inhibition (CCRK) [%]	Inhibition (CDK7; Lys1, DKNTNQIVAIKK) [%]	Inhibition (CDK7; Lys2, DLKPNNLLLDENGVLK) [%]	Inhibition (CHK2; Lys1, VAIKIISK) [%]	Inhibition (CHK2; Lys2, DLKPENVLLSSQEEDCLIK) [%]	Inhibition (CK1g3) [%]	Inhibition (CaMKK2; Lys1, LAYNENDNTYYAMKVLSK) [%]	Inhibition (CaMKK2; Lys2, DIKPSNLLVGEDGHIK) [%]	Inhibition (EGFR, EGFR-L858R; Lys1, IPVAIKELR) [%]	Inhibition (EGFR-L858R) [%]	Inhibition (Erk5) [%]	Inhibition (GSK3A) [%]	Inhibition (MAP3K4; Lys1, VYTCISVDTGELMAMKEIR) [%]	Inhibition (MAP3K4; Lys2, DIKGANIFLTSSGLIK) [%]	Inhibition (MAP3K5) [%]	Inhibition (MAP3K6) [%]	Inhibition (MARK1, MARK2) [%]	also measured
C=CC(=O)Nc1cc(C(=O)Nc2nc3cccc(C)c3n2[C@@H]2CCCCN(C(=O)C=C)C2)cs1 [ZNL-0056]	20.9	9.7	2.2	2.1	-17.3	-3.1	23.8	13.8	18.0	74.6	73.1	94.3	97.2	-18.2	11.5	16.4	-19.0	-61.4	20.5	11.4	Inhibition (EGFR, EGFR-L858R; Activation Loop, LLGAEEKEYHAEGGKVPIK): 83.2%; Inhibition (MLK1): -4.3%; Inhibition (MPSK1): 7.6%; Inhibition (MRCKb): 14.5%; Inhibition (NEK2): -9.4%; Inhibition (NuaK1): 17.0%; Inhibition (PDK1): 17.6%; Inhibition (PIP4K2C; TLVIKEVSSEDIADMHSNLSNYHQYIVK): 60.9%; Inhibition (PIP4K2C; VKELPTLKDMDFLNK): 53.5%; Inhibition (PKD3; Lys1, DVAIKVIDK): -14.1%; Inhibition (PKD3; Lys2, NIVHCDLKPENVLLASAEPFPQVK): 3.5%; Inhibition (PKN2): 22.0%
C=CC(=O)Nc1cc(Nc2nccc(-c3cn(C)c4ccccc34)n2)c(OC)cc1N(C)CCN(C)C [Osimertinib, osimertinib, reference compound]	6.4	-33.2	20.5	16.1	34.0	14.2	17.8	11.1	7.1	73.3	60.8	96.8	98.2	-4.1	-5.2	0.9	-3.4	21.0	-16.3	-15.4	Inhibition (EGFR, EGFR-L858R; Activation Loop, […]): 90.8%; Inhibition (MLK1): 34.9%; Inhibition (MPSK1): 0.8%; Inhibition (MRCKb): -26.5%; Inhibition (NEK2): -4.3%; Inhibition (NuaK1): 2.8%; Inhibition (PDK1): -20.7%; Inhibition (PIP4K2C; TLVIKEVSSEDIADMHSNLSNYHQYIVK): 59.0%; Inhibition (PIP4K2C; VKELPTLKDMDFLNK): 55.5%; Inhibition (PKD3; Lys1, DVAIKVIDK): -11.4%; Inhibition (PKD3; Lys2, NIVHCDLKPENVLLASAEPFPQVK): -11.6%; Inhibition (PKN2): 9.8%
